According to ChEMBL document CHEMBL2150993, “Substituted thiazoles VII. Synthesis and antitumor activity of certain 2-(substituted amino)-4-phenyl-1,3-thiazole analogs” (2012):

Assays:
Format in all cases: functional
Conditions in all cases: at 10 µM
RXF 393 = experiment: Growth inhibition of human RXF393 cells after 48 hrs by cell counting analysis
OVCAR-5 = experiment: Growth inhibition of human OVCAR5 cells after 48 hrs by cell counting analysis
M14 = experiment: Growth inhibition of human M14 cells after 48 hrs by cell counting analysis
HCT-15 = experiment: Growth inhibition of human HCT15 cells after 48 hrs by cell counting analysis
SK-OV-3 = experiment: Growth inhibition of human SKOV3 cells after 48 hrs by cell counting analysis
MDA-MB-468 = experiment: Growth inhibition of human MDA-MB-468 cells after 48 hrs by cell counting analysis
OVCAR-4 = experiment: Growth inhibition of human OVCAR4 cells after 48 hrs by cell counting analysis
NCI-H23 = experiment: Growth inhibition of human NCI-H23 cells after 48 hrs by cell counting analysis
Malme-3M = experiment: Growth inhibition of human MALME-3M cells after 48 hrs by cell counting analysis
HCC 2998 = experiment: Growth inhibition of human HCC2998 cells after 48 hrs by cell counting analysis
NCI-H226 = experiment: Growth inhibition of human NCI-H226 cells after 48 hrs by cell counting analysis
IGROV-1 = experiment: Growth inhibition of human IGROV1 cells after 48 hrs by cell counting analysis
PC-3 = experiment: Growth inhibition of human PC3 cells after 48 hrs by cell counting analysis
SR = experiment: Growth inhibition of human SR cells after 48 hrs by cell counting analysis
SNB-19 = experiment: Growth inhibition of human SNB19 cells after 48 hrs by cell counting analysis
SF-295 = experiment: Growth inhibition of human SF295 cells after 48 hrs by cell counting analysis
HOP-92 = experiment: Growth inhibition of human HOP92 cells after 48 hrs by cell counting analysis
U-251 = experiment: Growth inhibition of human U251 cells after 48 hrs by cell counting analysis
LOX IMVI = experiment: Growth inhibition of human LOXIMVI cells after 48 hrs by cell counting analysis
BT-549 = experiment: Growth inhibition of human BT549 cells after 48 hrs by cell counting analysis
MOLT-4 = experiment: Growth inhibition of human MOLT4 cells after 48 hrs by cell counting analysis
OVCAR-3 = experiment: Growth inhibition of human OVCAR3 cells after 48 hrs by cell counting analysis
SNB-75 = experiment: Growth inhibition of human SNB75 cells after 48 hrs by cell counting analysis
SK-MEL-28 = experiment: Growth inhibition of human SK-MEL-28 cells after 48 hrs by cell counting analysis
UACC-257 = experiment: Growth inhibition of human UACC257 cells after 48 hrs by cell counting analysis
MDA-MB-231 = experiment: Growth inhibition of human MDA-MB-231 cells after 48 hrs by cell counting analysis
T47D = experiment: Growth inhibition of human T47D cells after 48 hrs by cell counting analysis
UO-31 = experiment: Growth inhibition of human UO31 cells after 48 hrs by cell counting analysis
SF-539 = experiment: Growth inhibition of human SF539 cells after 48 hrs by cell counting analysis
HT-29 = experiment: Growth inhibition of human HT-29 cells after 48 hrs by cell counting analysis
SW-620 = experiment: Growth inhibition of human SW620 cells after 48 hrs by cell counting analysis
NCI-H522 = experiment: Growth inhibition of human NCI-H522 cells after 48 hrs by cell counting analysis
KM12 = experiment: Growth inhibition of human KM12 cells after 48 hrs by cell counting analysis
TK-10 = experiment: Growth inhibition of human TK10 cells after 48 hrs by cell counting analysis
OVCAR-8 = experiment: Growth inhibition of human OVCAR8 cells after 48 hrs by cell counting analysis
HOP-62 = experiment: Growth inhibition of human HOP62 cells after 48 hrs by cell counting analysis
[1] = Growth inhibition of human NCI-322M cells after 48 hrs by cell counting analysis
HL-60 = experiment: Growth inhibition of human HL60 cells after 48 hrs by cell counting analysis
A549 = experiment: Growth inhibition of human A549 cells after 48 hrs by cell counting analysis
RPMI-8226 = experiment: Growth inhibition of human RPMI8226 cells after 48 hrs by cell counting analysis
MCF7 = experiment: Growth inhibition of human MCF7 cells after 48 hrs by cell counting analysis
CAKI-1 = experiment: Growth inhibition of human Caki1 cells after 48 hrs by cell counting analysis
K562 = experiment: Growth inhibition of human K562 cells after 48 hrs by cell counting analysis
SN12C = experiment: Growth inhibition of human SN12C cells after 48 hrs by cell counting analysis
SF-268 = experiment: Growth inhibition of human SF268 cells after 48 hrs by cell counting analysis
ACHN = experiment: Growth inhibition of human ACHN cells after 48 hrs by cell counting analysis
UACC-62 = experiment: Growth inhibition of human UACC62 cells after 48 hrs by cell counting analysis
MDA-MB-435 = experiment: Growth inhibition of human MDA-MB-435 cells after 48 hrs by cell counting analysis
HCT-116 = experiment: Growth inhibition of human HCT116 cells after 48 hrs by cell counting analysis
SK-MEL-2 = experiment: Growth inhibition of human SK-MEL-2 cells after 48 hrs by cell counting analysis
[2] = Growth inhibition of human NCI-ADR-RES cells after 48 hrs by cell counting analysis
CCRF-CEM = experiment: Growth inhibition of human CCRF-CEM cells after 48 hrs by cell counting analysis
EKVX = experiment: Growth inhibition of human EKVX cells after 48 hrs by cell counting analysis
SK-MEL-5 = experiment: Growth inhibition of human SK-MEL-5 cells after 48 hrs by cell counting analysis

SMILES: Cc1ccc(-c2csc(NC(=O)CCN3CCN(c4ccccc4)CC3)n2)cc1
- growth inhibition (GI) (RXF 393): <10%
- growth inhibition (GI) (OVCAR-5): <10%
- growth inhibition (GI) (M14): <10%
- growth inhibition (GI) (HCT-15): <10%
- growth inhibition (GI) (SK-OV-3): <10%
- growth inhibition (GI) (MDA-MB-468): <10%
- growth inhibition (GI) (OVCAR-4): 11.1%
- growth inhibition (GI) (NCI-H23): 14.5%
- growth inhibition (GI) (Malme-3M): 12.1%
- growth inhibition (GI) (HCC 2998): <10%
- growth inhibition (GI) (NCI-H226): <10%
- growth inhibition (GI) (IGROV-1): 14.9%
- growth inhibition (GI) (PC-3): 16.1%
- growth inhibition (GI) (SR): <10%
- growth inhibition (GI) (SNB-19): <10%
- growth inhibition (GI) (SF-295): <10%
- growth inhibition (GI) (HOP-92): 10.2%
- growth inhibition (GI) (U-251): <10%
- growth inhibition (GI) (LOX IMVI): <10%
- growth inhibition (GI) (BT-549): <10%
- growth inhibition (GI) (MOLT-4): 14.9%
- growth inhibition (GI) (OVCAR-3): <10%
- growth inhibition (GI) (SNB-75): <10%
- growth inhibition (GI) (SK-MEL-28): <10%
- growth inhibition (GI) (UACC-257): <10%
- growth inhibition (GI) (MDA-MB-231): <10%
- growth inhibition (GI) (T47D): <10%
- growth inhibition (GI) (UO-31): 41.2%
- growth inhibition (GI) (SF-539): <10%
- growth inhibition (GI) (HT-29): <10%
- growth inhibition (GI) (SW-620): <10%
- growth inhibition (GI) (NCI-H522): <10%
- growth inhibition (GI) (KM12): <10%
- growth inhibition (GI) (TK-10): <10%
- growth inhibition (GI) (OVCAR-8): <10%
- growth inhibition (GI) (HOP-62): <10%
- growth inhibition (GI) [1]: 15.6%
- growth inhibition (GI) (HL-60): <10%
- growth inhibition (GI) (A549): 23.8%
- growth inhibition (GI) (RPMI-8226): <10%
- growth inhibition (GI) (MCF7): <10%
- growth inhibition (GI) (CAKI-1): 14.1%
- growth inhibition (GI) (K562): <10%
- growth inhibition (GI) (SN12C): <10%
- growth inhibition (GI) (SF-268): <10%
- growth inhibition (GI) (ACHN): <10%
- growth inhibition (GI) (UACC-62): 16.3%
- growth inhibition (GI) (MDA-MB-435): <10%
- growth inhibition (GI) (HCT-116): <10%
- growth inhibition (GI) (SK-MEL-2): <10%
- growth inhibition (GI) [2]: <10%
- growth inhibition (GI) (CCRF-CEM): <10%
- growth inhibition (GI) (EKVX): 16.6%
- growth inhibition (GI) (SK-MEL-5): <10%
